Data reported in patent publication US20240075031A1 (HHT Foundation International, Inc., priority 2020, published 2024).
Where two headings read alike, the source gives them in different places.

Key:
[1] = test system: transfusion-dependent adults with HHT (epistaxis and/or GI bleeding); test: Single-center pazopanib treatment pathway for severe bleeding and transfusion-dependent anemia in HHT; settings: for RBC units transfused, median (IQR): pretreatment 3 months 16.0 (9.5-22.0); for patients with transferrin saturation ≥20%: no patient at baseline
Source text: In some embodiments, and still referring to FIG. 1, subjects may undergo follow-up clinical visits with vital signs, laboratory evaluations [complete blood count with white-cell differential, serum ferritin, iron and transferrin saturation, complete metabolic panel including liver function testing (transaminases, bilirubin, and alkaline phosphatase), serum phosphorous, urinalysis, and thyroid-stimulating hormone levels], electrocardiogram, and ESS calculations at a preconfigured time interval such as but not limited to 1 month, 2 months, 3 months, 4 months, 5 months, 6 months, and the like thereof per the pathway, with additional laboratory testing and visits as indicated.
In some embodiments, one or more secondary endpoints may include hemoglobin concentrations, epistaxis severity scores, iron infusions, baseline serum ferritin, and/or transferrin saturation.
Baseline and on-treatment hemoglobin values were drawn at clinical nadir (just prior to a scheduled transfusion) to minimize any impact of transfusion on the value. If more than one value was measured in a given 3-month period, the average value for that period was documented for analysis.
Now referring to FIG. 3B, three-month ESS was collected by the treating physician at treatment initiation and visits at 3, 6, 9, and 12 months on-treatment.
Now referring to FIG. 3C, a number of RBC units transfused in the 3 months of pretreatment were compared with the number of units transfused at each 3-month time interval on-treatment (1-3, 4-6, 7-9, and 10-12 months). The same analysis was performed for the total milligrams of elemental iron administered by IV infusion.
Baseline and on-treatment iron studies were drawn at nadir (prior to iron infusion or RBC transfusion, if either was given) to minimize any impact of recent iron infusion or RBC transfusion on the values.

[2] = design: AUC.0-24, Mean: unit not given beside the values; settings: historical values, Hurwitz 2009; 50 mg SD; cited from earlier work
[3] = 6 patient PK study, 50 mg SD, powder in capsule (disclosed method); assay type: in vivo, patients; settings: for AUC / Cmax: 50 mg
Source text: In some embodiments, may be similar to the results expected of a crushed tablet. No reduction in the standard error (SE), but only 6 patients may not be adequate to see this range of exposures decrease. An improvement with powder in capsules is that the variation in exposure should also be truncated based on prior crushed tablet study.

[4] = disclosed method, 6 patients, 50 mg SD

Cc1ccc(Nc2nccc(N(C)c3ccc4c(C)n(C)nc4c3)n2)cc1S(N)(=O)=O [pazopanib]
RBC units transfused, median (IQR) ([1]; 1-3 months of on-treatment): 0.0 (0.0-1.0) units | elemental iron infused, median (IQR) ([1]; 1-3 months on-treatment, pretreatment 3 months 4500 (2145-7260)): 0 (0-1500) milligrams | patients with freedom from anemia (Hgb≥11 g/dL) ([1]; 3 months): 15% | RBC units transfused, median (IQR) ([1]; 4-6, 7-9, and 10-12 months of on-treatment): 0.0 (0.0-0.0) units | elemental iron infused, median (IQR) ([1]; 4-6 months on-treatment): 0 (0-1260) milligrams | patients with freedom from anemia (Hgb≥11 g/dL) ([1]; 6 months): 85% | patients with transferrin saturation ≥20% ([1]; 6 months, 8 patients): 62% | elemental iron infused, median (IQR) ([1]; 7-9 months on-treatment): 0 (0-1260) milligrams | patients with freedom from anemia (Hgb≥11 g/dL) ([1]; 9 months): 85% | elemental iron infused, median (IQR) ([1]; 10-12 months on-treatment): 0 (0-510) milligrams | patients with freedom from anemia (Hgb≥11 g/dL) ([1]; 12 months): 92% | patients not requiring any local hemostatic procedures after initiating treatment ([1]; 12 months on-treatment, 9 patients): 69% | patients with transferrin saturation ≥20% ([1]; 12 months, 7 patients): 54% | patients achieving RBC transfusion independence ([1]; at 3 months of treatment, 10 of 13 patients): 77% | remaining patients achieving RBC transfusion independence ([1]; at 6 months of treatment, 3 of 13 patients): 23% | patients entirely RBC transfusion free ([1]; during the 12 months following pazopanib initiation, 9 of 13 patients): 69% | number of local hemostatic procedures, median (range) ([1]; during the 12 months of on-treatment, 12 months pretreatment 4 (1-5)): 0 (0-2) | patients achieving RBC transfusion independence per Gale criteria ([1]; first year of pazopanib treatment, 13 patients analysed): 13 patients | transferrin saturation, median (IQR) ([1]; on-treatment (average of values at 6 and 12 months), baseline 9% (5-11%)): 23% | serum ferritin, median (IQR) ([1]; on-treatment (average of values at 6 and 12 months), baseline 31 (16-71)): 122 (79-154) ng/mL | AUC.0-24, Mean [2]: 51.8 | C24, Mean [2]: 1.5 | Tmax, median [2]: 3.0/ | increase in the Area Under the Curve (AUC) from prior publications of comparable dosing ([3]; capsule enclosing a powder substance): 20-25% | C24, GeoMean [3, 4]: 1.90 | C24, Mean [3, 4]: 2.09 | AUC ([3]; human, plasma, oral, disclosed method, 6 patients, 50 mg SD, read-out: AUC.0-24, GeoMean): 59800 ng·h/mL | AUC ([3]; human, plasma, oral, disclosed method, 6 patients, 50 mg SD, read-out: AUC.0-24, Mean): 64400 ng·h/mL | Cmax ([3]; human, plasma, oral, disclosed method, 6 patients, 50 mg SD, read-out: Cmax, GeoMean): 3820 ng/mL | Cmax ([3]; human, plasma, oral, disclosed method, 6 patients, 50 mg SD, read-out: Cmax, Mean): 4120 ng/mL | Tmax ([3]; human, plasma, oral, disclosed method, 6 patients, 50 mg SD, read-out: Tmax, median): 4.5 h
